Values quoted from earlier work as cited in patent US20230233494A1, “BIOAVAILABLE SUGAR-BASED DICLOFENAC FORMULATIONS” (APR Applied Pharma Research SA, priority 2020, published 2023).
Where a name gives a salt, the structure may show the parent alone.

Settings: at acidic pH

Solubility: sparingly soluble
SMILES: O=C(O)Cc1ccccc1Nc1c(Cl)cccc1Cl [diclofenac potassium, [2-(2,6-dichlorophenyl)amino]benzeneacetate, potassium salt]
